The numbers were not newly measured in US9757705B2, “Method for production of concentrates of preferably water-soluble active agents” (KWIZDA AGRO GMBH, priority 2013, dated 2017), which cites them from elsewhere.

For this data set the following is noted: at 20° C.; according to literature.

With `C/C(=N\C#N)N(C)Cc1ccc(Cl)nc1` [Acetamiprid], the solubility is 400 mg/100 ml.
